Where two headings read alike, the source gives them in different places.
Assays:
[1] = tested on: hypercholesterolemia golden hamster model; assay: In vivo pharmacodynamic screening in hypercholesterolemia model of golden hamster (plasma TC and LDL-C); conditions: for inhibition in vivo at 0.4 mg/kg / inhibition in vivo at 2 mg/kg / inhibition in vivo at 10 mg/kg: Table 2; for LDL-C after administration / TC after administration / LDL after administration: 1 week, plasma
Method: 1. Establishment of Hypercholesterolemia Model of Golden Hamster:
The animals were subjected to acclimation feeding for 1 week with free feeding and drinking under a lighting condition of 10 h/14 h. On Day 8, the animals were raised with high fat feed (consisting of 0.5% cholesterol, 20% palm oil, 79.5% basal feed) for 1 week. Then, each animal was anesthetized by ether. After weighing, 0.5 ml blood was obtained from orbital vein, anticoagulated with heparin and centrifuged at 5000 rpm for 10 min. The plasma was collected and the levels of plasma TC (total cholesterol) and LDL-C (low density lipoprotein cholesterol) were determined by automatic biochemical analyzer. Animals with plasma TC of 9-15 mmol/L were selected as model animals (refer to the following reference for the method of animal modeling: Burrier, R. E., Smith, A. A., Mcgregor, D. G, Hoos, L. M., Zilli, D. L., Davis, H. R. The effect of acyl CoA: cholesterol acyltransferase inhibition on the uptake, esterification and secretion of cholesterol by the hamster small intestine. J. Pharm. Exp. Ther., 1995, 272, 156-163).
The animals were grouped according to TC and LDL-C levels and weight with 6 animals per group. Ezetimibe was used as positive control. The animals were intragastrically administered at a volume of 5 ml/kg for 1 week. Each animal was anesthetized by ether. After weighing, 0.5 ml blood was taken from orbital vein, anticoagulated with heparin, and centrifuged at 5000 rpm for 10 min. The plasma was collected and plasma TC (total cholesterol) and LDL-C (low density lipoprotein cholesterol) levels were determined by automatic biochemical analyzer to evaluate the efficacy of the compounds.

normal guinea pig = assay: Effect on blood lipid level of normal guinea pigs; assay type: in vivo; conditions: for HDL after administration / LDL after administration / TC after administration / TG after administration: Table 13
[2] = Mesocricetus auratus, po, 168 h, read-out: Reducing LDL-C %
[3] = Mesocricetus auratus, po, 168 h, read-out: Reducing TC %
[4] = Table 1, 0.4 mg/kg intragastric

O=C1[C@H](C/C=C(\CO)c2ccc(F)cc2)[C@@H](c2ccc(O)cc2)N1c1ccc(F)cc1 [I-1(Z), (3R,4S)-1-(4-fluorophenyl)-3-[(Z)-3-(4-fluorophenyl)-4-hydroxy-but-2-enyl]-4-(4-hydroxyphenyl)azetidin-2-one]
inhibition in vivo at 0.4 mg/kg [1, 2]: 32.7% | inhibition in vivo at 0.4 mg/kg [1, 3]: 33.7% | inhibition in vivo at 2 mg/kg [1, 2]: 72.4% | inhibition in vivo at 2 mg/kg [1, 3]: 49.7% | inhibition in vivo at 10 mg/kg [1, 2]: 83.1% | inhibition in vivo at 10 mg/kg [1, 3]: 55.9% | inhibition in vivo at 1 mg/kg ([1]; Mesocricetus auratus, po, 168 h, Table 4, 1 mg/kg, read-out: Reducing TC %): 57.5% | inhibition in vivo at 4 mg/kg ([1]; Mesocricetus auratus, po, 168 h, Table 4, 4 mg/kg, read-out: Reducing TC %): 67.9% | LDL-C after administration [1, 4]: 1.52 ± 0.31 mmol/L | TC after administration [1, 4]: 6.46 ± 0.58 mmol/L | LDL-C after administration ([1]; Table 1, 2 mg/kg intragastric): 0.71 ± 0.49 mmol/L | TC after administration ([1]; Table 1, 2 mg/kg intragastric): 4.9 ± 0.62 mmol/L | LDL-C after administration ([1]; Table 1, 10 mg/kg intragastric): 0.42 ± 0.2 mmol/L | TC after administration ([1]; Table 1, 10 mg/kg intragastric): 4.3 ± 0.85 mmol/L | LDL-C before administration ([1]; Table 1, baseline of group dosed 0.4 mg/kg): 2.26 ± 0.65 mmol/L | LDL-C before administration ([1]; Table 1, baseline of group dosed 2 mg/kg): 2.57 ± 0.47 mmol/L | LDL-C before administration ([1]; Table 1, baseline of group dosed 10 mg/kg): 2.48 ± 0.67 mmol/L | LDL after administration ([1]; Table 3, 1 mg/kg intragastric): 1.19 ± 0.16 mmol/L | TC after administration ([1]; Table 3, 1 mg/kg intragastric): 5.79 ± 0.99 mmol/L | LDL after administration ([1]; Table 3, 4 mg/kg intragastric): 0.99 ± 0.28 mmol/L | TC after administration ([1]; Table 3, 4 mg/kg intragastric): 4.37 ± 0.59 mmol/L | Reducing LDL % ([1]; Table 4, 1 mg/kg): 35.7% | Reducing LDL % ([1]; Table 4, 4 mg/kg): 46.2% | effect compared with positive control Ezetimibe at the same dose (in words) ([1]; golden hamster hypercholesterolemic model, same dose): the same as that of the positive control | reduction of plasma TC and LDL-C levels (in words) ([1]; golden hamster hypercholesterolemic model, significant statistical difference): can significantly reduce the plasma TC and LDL-C levels | effect of lowering cholesterol (screening result in words) ([1]; in vivo pharmacodynamic screening test, Ezetimibe as positive control): have the effect of lowering cholesterol | efficacy compared with the positive control (in words) ([1]; positive control Ezetimibe): more similar to the positive control | HDL after administration (normal guinea pig; 0.1 mg/kg): 0.47 mmol/L | LDL after administration (normal guinea pig; 0.1 mg/kg): 1.73 mmol/L | TC after administration (normal guinea pig; 0.1 mg/kg): 1.77 ± 0.43 mmol/L | TG after administration (normal guinea pig; 0.1 mg/kg): 0.38 ± 0.05 mmol/L | HDL after administration (normal guinea pig; 0.5 mg/kg): 0.4 mmol/L | LDL after administration (normal guinea pig; 0.5 mg/kg): 1.75 mmol/L | TC after administration (normal guinea pig; 0.5 mg/kg): 1.9 ± 0.2 mmol/L | TG after administration (normal guinea pig; 0.5 mg/kg): 0.44 ± 0.06 mmol/L | HDL after administration (normal guinea pig; 2.5 mg/kg): 0.47 mmol/L | LDL after administration (normal guinea pig; 2.5 mg/kg): 0.86 mmol/L | TC after administration (normal guinea pig; 2.5 mg/kg): 1.17 ± 0.25 mmol/L | TG after administration (normal guinea pig; 2.5 mg/kg): 0.31 ± 0.12 mmol/L | reduction of plasma TC and LDL-C levels (in words) (normal guinea pig; normal guinea pigs): can significantly reduce the plasma TC and LDL-C levels | effect compared with positive control Ezetimibe at the same dose (in words) (normal guinea pig; normal guinea pigs, same dose): the same as that of the positive control
